US20160068861A1, “METHOD FOR DETECTING PROTEIN STABILITY AND USES THEREOF” (priority 2013, published 2016)

Assays:
CZ-1 cells = experiment: MTT detection of cell viability, BTZ-sensitive cell line; format: cell-based, human
Description: (§1) CZ-1 cells can be obtained from Hou Jian Laboratory of Shanghai Changzheng Hospital (Hou J, Lin F Y, Zhang B, Zhang L Z, Ding S Q, Establishment and biological characteristics of human multiple myeloma cell line CZ-1. Chinese Medical Journal [2004, 117(1):115-119]); CZ-1/R cell lines was constructed by the inventor's Laboratories, and can be obtained from the inventor's laboratory (http://www.sibcb.ac.cn/PI.asp?id=129).
(§2) Plates were incubated for 24-72 hours. To each well was added 20 ul MTT (3-(4,5-dimethyl-2-thiazole)-2,5-diphenyl tetrazolium bromide) solution, culture was continued for another 4 hrs. To each well was added 150 ul of dimethyl sulfoxide, shaken on a shaker at low speed for 10 mins for thoroughly dissolving the crystals. Absorbance of each well was measured on an enzyme-linked immune detector at OD 490 nm (570 nm).

CZ-1/R cells = experiment: MTT detection of cell viability, BTZ-resistant cell line; format: cell-based, human
Description: as §1, §2

[1] = BTZ in combination with 17-AAG, FIG. 9
[2] = BTZ in combination with C75, FIG. 9

Measured: killing effects (MTT)

CC(C)C[C@H](NC(=O)[C@H](Cc1ccccc1)NC(=O)c1cnccn1)B(O)O [BTZ, Bortezomib]
significant killing effects: CZ-1 cells; [1] | CZ-1 cells; [2] | CZ-1/R cells; [1] | CZ-1/R cells; [2]
